Assay results as given in patent US20240158446A1, “CYCLIC COMPOUND HAVING SELECTIVE INHIBITORY ACTION ON KRAS OVER HRAS AND NRAS” (CHUGAI SEIYAKU KABUSHIKI KAISHA, priority 2021, published 2024).
pIC50, pKd: −log10 of the molar value. Read-outs that look alike come from different tables or passages of the source. Where a SMILES comes first, the peptide text is derived from it. Bridges are numbered along the chain shown (N, C = ends). [ ]: non-standard residue; d: D form. The star is where a group is joined. ξ: configuration not given here. hPhe(3-Cl-4-CF3) = N[C@@H](CCc1ccc(C(F)(F)F)c(Cl)c1)C(=O)O; NPrPhe(4-CF3) = CCCN[C@@H](Cc1ccc(C(F)(F)F)cc1)C(=O)O; 3Oxa8azabicyclo(3.2.1)octane = C1CC2COCC1N2*; NEtPhe(4-Me) = CCN[C@@H](Cc1ccc(C)cc1)C(=O)O; NMeGly(cPent) = CN[C@H](C(=O)O)C1CCCC1; NMeD = CN[C@@H](CC(=O)O)C(=O)O; NMeL = CN[C@@H](CC(C)C)C(=O)O; ξNMeD = CNC(CC(=O)O)C(=O)O; Morpholide = C1CN(*)CCO1; NMeAib = CNC(C)(C)C(=O)O; Nle = CCCC[C@H](N)C(=O)O; Piperidide = C1CCN(*)CC1; Ac5c = NC1(C(=O)O)CCCC1; ξP = O=C(O)C1CCCN1; Sar = CNCC(=O)O

Columns and labels:
[1] = test system: human lung cancer strain NCI-H441;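 also: cell proliferation inhibition after four days measured by CellTiter-Glo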
[2] = target: GDP-bound KRAS wild-type protein (Homo sapiens, UniProt P01116); assay: Binding to KRAS by surface plasmon resonance (SPR), Single Cycle Kinetics; conditions: SPR, Single Cycle Kinetics, GDP-bound KRAS wild-type protein; read-out: KRAS KD
[3] = target: GDP-bound NRAS wild-type protein (Homo sapiens, UniProt P01111); assay: Binding to NRAS by surface plasmon resonance (SPR), Single Cycle Kinetics; conditions: SPR, GDP-bound NRAS wild-type protein vs GDP-bound KRAS wild-type protein
[4] = target: GDP-bound HRAS wild-type protein (Homo sapiens, UniProt P01112); assay: Binding to HRAS by surface plasmon resonance (SPR), Single Cycle Kinetics; conditions: SPR, GDP-bound HRAS wild-type protein vs GDP-bound KRAS wild-type protein
Chain of GDP-bound HRAS wild-type protein (P01112 whole entry): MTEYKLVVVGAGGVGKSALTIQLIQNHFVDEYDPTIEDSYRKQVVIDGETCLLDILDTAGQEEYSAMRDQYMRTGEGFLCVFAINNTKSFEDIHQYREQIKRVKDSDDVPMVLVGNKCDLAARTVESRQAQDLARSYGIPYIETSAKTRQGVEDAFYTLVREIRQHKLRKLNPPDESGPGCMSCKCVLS

Chain of GDP-bound NRAS wild-type protein (P01111 whole entry): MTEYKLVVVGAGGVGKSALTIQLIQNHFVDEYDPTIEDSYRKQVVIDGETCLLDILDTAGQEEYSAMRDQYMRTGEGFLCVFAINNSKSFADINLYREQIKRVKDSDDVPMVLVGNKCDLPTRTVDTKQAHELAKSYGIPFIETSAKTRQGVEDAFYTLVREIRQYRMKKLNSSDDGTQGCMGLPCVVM
Chain of GDP-bound KRAS wild-type protein (P01116 whole entry): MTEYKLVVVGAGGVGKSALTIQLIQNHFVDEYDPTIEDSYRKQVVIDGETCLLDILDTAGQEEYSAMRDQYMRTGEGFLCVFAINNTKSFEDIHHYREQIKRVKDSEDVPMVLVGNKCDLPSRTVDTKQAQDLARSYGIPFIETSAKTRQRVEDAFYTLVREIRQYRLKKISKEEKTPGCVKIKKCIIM

pKd [2]	SMILES	pIC50 ([1]; read-out: NCI-H441 IC50, NCI-H441 cells, four days, CellTiter-Glo)	pIC50 [1]	NRAS/KRAS (ratio of KD value for NRAS to KD value for KRAS) [3]	HRAS/KRAS (ratio of KD value for HRAS to KD value for KRAS) [4]
9.25	CCCO[C@@H]1C[C@H]2C(=O)NC3(CC(C)(C)C3)C(=O)N(C)[C@@H](C(CC)CC)C(=O)N(C)[C@H](C(=O)N(C)C)CC(=O)N(C)[C@H]3CCCc4ccc(cc4)C[C@@H](C(=O)N(C)CC(=O)N[C@@H](CCc4ccc(C(F)(F)F)c(OC)c4)C(=O)N2C1)N1CC/C=C\C[C@@H](C1=O)N(C)C(=O)CN(C)C(=O)[C@H]([C@@H](C)CC)NC3=O [PP3063]			B (a compound having 3 or more and less than 10 is denoted as B)	B (a compound having 3 or more and less than 10 is denoted as B)
9.64	CCCO[C@@H]1C[C@H]2C(=O)NC3(CC(C)(C)C3)C(=O)N(C)[C@@H](C3CCCC3)C(=O)N(C)[C@H](C(=O)N3CCCC3)CC(=O)N(C)[C@H]3CCCc4ccc(cc4)C[C@@H](C(=O)N(C)CC(=O)N[C@@H](CCc4ccc(C(F)(F)F)c(OC)c4)C(=O)N2C1)N1CC/C=C\C[C@@H](C1=O)N(C)C(=O)CN(C)C(=O)[C@H]([C@@H](C)CC)NC3=O [PP3065]			A (a compound having 10 or more and less than 20 is denoted as A)	B (a compound having 3 or more and less than 10 is denoted as B)
10.38	CCO[C@@H]1C[C@H]2C(=O)NC3(CC(C)(C)C3)C(=O)N(C)[C@@H](C3CCCC3)C(=O)N(C)[C@H](C(=O)N(C)C)CC(=O)N(C)[C@H]3CCCCCCc4ccc(cc4)C[C@@H](C(=O)N(C)CC(=O)N[C@@H](CCc4ccc(C(F)(F)F)c(OC)c4)C(=O)N2C1)N1CC/C=C\C[C@@H](C1=O)N(C)C(=O)CN(C)C(=O)[C@H]([C@@H](C)CC)NC3=O [PP3066]			A (a compound having 10 or more and less than 20 is denoted as A)	B (a compound having 3 or more and less than 10 is denoted as B)
10.28	CC[C@H](C)[C@@H]1NC(=O)[C@@H]2CCCCCCc3ccc(cc3)C[C@@H](C(=O)N(C)CC(=O)N[C@@H](CCc3ccc(C(F)(F)F)c(OC)c3)C(=O)N3C[C@H](OC(C)C)C[C@H]3C(=O)NC3(CC(C)(C)C3)C(=O)N(C)[C@@H](C3CCCC3)C(=O)N(C)[C@H](C(=O)N(C)C)CC(=O)N2C)N2CC/C=C\C[C@@H](C2=O)N(C)C(=O)CN(C)C1=O [PP3067]			A (a compound having 10 or more and less than 20 is denoted as A)	B (a compound having 3 or more and less than 10 is denoted as B)
10.30	CC[C@H](C)[C@@H]1NC(=O)[C@@H]2CCCCCCc3ccc(cc3)C[C@@H](C(=O)N(C)CC(=O)N[C@@H](CCc3ccc(C(F)(F)F)c(OC)c3)C(=O)N3C[C@H](OC4CCC4)C[C@H]3C(=O)NC3(CC(C)(C)C3)C(=O)N(C)[C@@H](C3CCCC3)C(=O)N(C)[C@H](C(=O)N(C)C)CC(=O)N2C)N2CC/C=C\C[C@@H](C2=O)N(C)C(=O)CN(C)C1=O [PP3068]			A (a compound having 10 or more and less than 20 is denoted as A)	B (a compound having 3 or more and less than 10 is denoted as B)
10.47	CC[C@H](C)[C@@H]1NC(=O)[C@@H]2CCCCCCc3ccc(cc3)C[C@@H](C(=O)N(C)CC(=O)N[C@@H](CCc3ccc(C(F)(F)F)c(OC)c3)C(=O)N3CC4(CC4)C[C@H]3C(=O)NC3(CC(C)(C)C3)C(=O)N(C)[C@@H](C3CCCC3)C(=O)N(C)[C@H](C(=O)N(C)C)CC(=O)N2C)N2CC/C=C\C[C@@H](C2=O)N(C)C(=O)CN(C)C1=O [PP3069]			A (a compound having 10 or more and less than 20 is denoted as A)	B (a compound having 3 or more and less than 10 is denoted as B)
9.92	CCO[C@@H]1C[C@H]2C(=O)NC3(CC(C)(C)C3)C(=O)N(C)[C@@H](C3CCCC3)C(=O)N(C)[C@H](C(=O)N(C)C)CC(=O)N(C)[C@H]3CCCCCCc4ccc(cc4)C[C@@H](C(=O)N(C)CC(=O)N[C@@H](CCc4ccc(Cl)c(Cl)c4)C(=O)N2C1)N1CC/C=C\C[C@@H](C1=O)N(C)C(=O)CN(C)C(=O)[C@H]([C@@H](C)CC)NC3=O [PP3071]			A (a compound having 10 or more and less than 20 is denoted as A)	B (a compound having 3 or more and less than 10 is denoted as B)

The remaining lines, values behind:

SMILES	pKd [2]	pIC50 ([1]; read-out: NCI-H441 IC50, NCI-H441 cells, four days, CellTiter-Glo)	pIC50 [1]	NRAS/KRAS (ratio of KD value for NRAS to KD value for KRAS) [3]	HRAS/KRAS (ratio of KD value for HRAS to KD value for KRAS) [4]
CCCC[C@@H]1NC(=O)[C@H](CCc2ccc(C(F)(F)F)c(Cl)c2)NC(=O)CN(C)C(=O)[C@H](Cc2ccc(C)cc2)N(CC)C(=O)CN(C)C(=O)CN(C)C(=O)[C@H]([C@@H](C)CC)NC(=O)[C@H](CC(C)C)N(C)C(=O)C[C@@H](C(=O)N2CCCCC2)N(C)C(=O)[C@H](CC(C)C)NC(=O)C(C)(C)N(C)C1=O [PP0050] ([NMeL]I[Sar][Sar][NEtPhe(4-Me)][Sar][hPhe(3-Cl-4-CF3)][Nle][NMeAib]L[NMeD]-Piperidide; lactam N-11)		6.30			
CC[C@H](C)[C@@H]1NC(=O)[C@H](CC(C)C)N(C)C(=O)C[C@@H](C(=O)N2C3CCC2COC3)N(C)C(=O)[C@H](C2CCCC2)N(C)C(=O)C2(CCCC2)NC(=O)[C@@H]2CCCN2C(=O)[C@H](CCc2ccc(C(F)(F)F)c(Cl)c2)NC(=O)CN(C)C(=O)[C@H](Cc2ccc(C)cc2)N(CC)C(=O)CN(C)C(=O)CN(C)C1=O [PP0051] ([NMeL]I[Sar][Sar][NEtPhe(4-Me)][Sar][hPhe(3-Cl-4-CF3)]P[Ac5c][NMeGly(cPent)][NMeD]-{3Oxa8azabicyclo(3.2.1)octane}; lactam N-11)			7.66		
CCCN1C(=O)CN(C)C(=O)CN(C)C(=O)[C@H]([C@@H](C)CC)NC(=O)[C@H](CC(C)C)N(C)C(=O)CC(C(=O)N2CCOCC2)N(C)C(=O)[C@H](C2CCCC2)N(C)C(=O)C2(CCCC2)NC(=O)[C@@H]2CCCN2C(=O)[C@H](CCc2ccc(C(F)(F)F)c(Cl)c2)NC(=O)C2CCCN2C(=O)[C@@H]1Cc1ccc(C(F)(F)F)cc1 (stereo partly drawn) [PP0149] ([NMeL]I[Sar][Sar][NPrPhe(4-CF3)][ξP][hPhe(3-Cl-4-CF3)]P[Ac5c][NMeGly(cPent)][ξNMeD]-Morpholide; lactam N-11)			6.50		
CCO[C@@H]1C[C@H]2C(=O)N(C)C3(CC(C)(C)C3)C(=O)N(C)[C@@H](C3CCCC3)C(=O)N(C)[C@H](C(=O)N(C)C)CC(=O)N(C)[C@H]3CCCC/C=C/c4ccc(cc4)C[C@@H](C(=O)N(C)CC(=O)N[C@@H](CCc4ccc(Cl)c(Cl)c4)C(=O)N2C1)N1CC/C=C\C[C@@H](C1=O)N(C)C(=O)CN(C)C(=O)[C@H]([C@@H](C)CC)NC3=O [PP3062]	10.18			A (a compound having 10 or more and less than 20 is denoted as A)	A (a compound having 10 or more and less than 20 is denoted as A)
CCCO[C@@H]1C[C@H]2C(=O)NC3(CC(C)(C)C3)C(=O)N(C)[C@@H](C3CCCC3)C(=O)N(C)[C@H](C(=O)N3CCCCC3)CC(=O)N(C)[C@H]3CCCc4ccc(cc4)C[C@@H](C(=O)N(C)CC(=O)N[C@@H](CCc4ccc(C(F)(F)F)c(OC)c4)C(=O)N2C1)N1CC/C=C\C[C@@H](C1=O)N(C)C(=O)CN(C)C(=O)[C@H]([C@@H](C)CC)NC3=O [PP3064]	9.43			B (a compound having 3 or more and less than 10 is denoted as B)	B (a compound having 3 or more and less than 10 is denoted as B)
